Source: the supplement of paper PMC8612539
Converted amounts (≈) assume the structure as drawn.

Tested on: Histophilus somni
Experiment: minimum inhibitory concentration (MIC)
Protocol: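 Broth microdilution MIC (Sensititre BOPO7F bovine plate, CLSI methods) of 19 antimicrobials against field isolates of P. multocida, M. haemolytica, H. somni (deep nasopharyngeal swabs) and E. coli, Enterococcus spp. (rectal swabs) from weaned dairy heifers. Incubation 16-24 h at 35 C. MIC is the lowest concentration preventing visible growth. Values with <= or > lie at the tested range limits. Trimethoprim-sulfamethoxazole is given as the trimethoprim component of a 1:19 mixture.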

CCCNC[C@]1(O)[C@H](C)O[C@@H](O[C@H]2[C@H](C)[C@@H](O[C@@H]3O[C@H](C)C[C@H](N(C)C)[C@H]3O)[C@](C)(O)C[C@@H](C)CN[C@H](C)[C@@H](O)[C@](C)(O)[C@@H](CC)OC(=O)[C@@H]2C)C[C@@]1(C)OC [Tulathromycin]
Details | minimum inhibitory concentration [µg/mL]
isolate (source animal id): 110 | 16 (≈ 19.8 µM)
isolate (source animal id): 117 | ≤ 8
isolate (source animal id): 121 | ≤ 8
isolate (source animal id): 123 | ≤ 8
isolate (source animal id): 124 | ≤ 8
isolate (source animal id): 127 | ≤ 8
isolate (source animal id): 128 | ≤ 8
isolate (source animal id): 130 | 16 (≈ 19.8 µM)
isolate (source animal id): 132 | ≤ 8
isolate (source animal id): 135 | ≤ 8
isolate (source animal id): 140 | ≤ 8
isolate (source animal id): 141 | ≤ 8
isolate (source animal id): 142 | > 64
isolate (source animal id): 144 | ≤ 8
isolate (source animal id): 146 | 16 (≈ 19.8 µM)
isolate (source animal id): 147 | > 64
isolate (source animal id): 151 | ≤ 8
isolate (source animal id): 153 | 16 (≈ 19.8 µM)
isolate (source animal id): 154 | > 64
isolate (source animal id): 156 | > 64
isolate (source animal id): 157 | 16 (≈ 19.8 µM)
isolate (source animal id): 176 | ≤ 8
isolate (source animal id): 183 | ≤ 8
isolate (source animal id): 186 | ≤ 8
isolate (source animal id): 196 | ≤ 8
isolate (source animal id): 198 | ≤ 8
isolate (source animal id): 200 | 16 (≈ 19.8 µM)
isolate (source animal id): 206 | ≤ 8
isolate (source animal id): 208 | ≤ 8
isolate (source animal id): 210 | ≤ 8
isolate (source animal id): 212 | ≤ 8
isolate (source animal id): 215 | ≤ 8
isolate (source animal id): 216 | 16 (≈ 19.8 µM)
isolate (source animal id): 218 | ≤ 8
isolate (source animal id): 219 | ≤ 8
isolate (source animal id): 224 | ≤ 8
isolate (source animal id): 228 | ≤ 8
isolate (source animal id): 230 | ≤ 8
isolate (source animal id): 233 | ≤ 8
isolate (source animal id): 238 | ≤ 8
isolate (source animal id): 239 | ≤ 8
isolate (source animal id): 241 | ≤ 8
isolate (source animal id): 242 | ≤ 8
isolate (source animal id): 243 | ≤ 8
isolate (source animal id): 245 | ≤ 8
isolate (source animal id): 246 | ≤ 8
isolate (source animal id): 247 | ≤ 8
isolate (source animal id): 248 | ≤ 8
isolate (source animal id): 250 | ≤ 8
isolate (source animal id): 251 | ≤ 8
isolate (source animal id): 252 | ≤ 8
isolate (source animal id): 254 | ≤ 8
isolate (source animal id): 258 | ≤ 8
isolate (source animal id): 259 | ≤ 8
isolate (source animal id): 262 | ≤ 8
isolate (source animal id): 264 | ≤ 8
isolate (source animal id): 265 | ≤ 8
isolate (source animal id): 266 | ≤ 8
isolate (source animal id): 267 | ≤ 8
isolate (source animal id): 269 | ≤ 8
isolate (source animal id): 271 | ≤ 8
isolate (source animal id): 272 | ≤ 8
isolate (source animal id): 274 | ≤ 8
isolate (source animal id): 276 | ≤ 8
isolate (source animal id): 278 | ≤ 8
isolate (source animal id): 280 | ≤ 8
isolate (source animal id): 281 | ≤ 8
isolate (source animal id): 283 | ≤ 8
isolate (source animal id): 288 | ≤ 8
isolate (source animal id): 291 | ≤ 8
isolate (source animal id): 292 | ≤ 8
isolate (source animal id): 296 | ≤ 8
isolate (source animal id): 306 | ≤ 8
isolate (source animal id): 336 | 16 (≈ 19.8 µM)
isolate (source animal id): 337 | 16 (≈ 19.8 µM)
isolate (source animal id): 341 | ≤ 8
